{"source": "patent US20030232784A1", "about": "“Hyaluronic acid-associated superoxide dismutase mimics and their use in the treatment of joint pain” (priority 2002, published 2003)", "origin": "cited, not measured here", "test_system": "patients with active classical rheumatoid arthritis", "data": [{"substance": "Orgotein®: a bovine SOD with a Cu/Zn catalytic site", "values": [{"measurement": "effect on rheumatoid arthritis symptoms", "setting": "intraarticular injection, patients with active classical rheumatoid arthritis", "result": "ameliorated a number of symptoms"}, {"measurement": "immunogenicity", "setting": "reason for removal from the market", "result": "development of immune responses against the bovine enzyme"}]}]}
